Data taken from patent US7781565B2 (priority 2006, dated 2010).
“Also recorded” adds a separate entry of the source.

Each substance was assayed on NCI-60 cell lines.
Format: cell-based, human

Substance | Cell Line (NCI-60 cell line the peptide and its motif are associated with) | Cell Line (NCI-60 cell line the peptide is associated with) | Cell Line with which the peptide (and its tripeptide motif) is associated | Cell Line the peptide is associated with (peptide recovered from phage library selection on this NCI-60 cell line)
LIGGLLS | SK-MEL-5 Melanoma | – | – | –
LIGGRNA | – | HCT-116 Colon | – | –
LIGGVLH | IGROV1 Ovarian | – | – | –
LIGPGGR | – | – | H322-Lung | –
LIGRASM | SK-OV-3-3 Ovarian | – | – | –
LIHAGGQ | – | – | – | ACHN Renal
LIRAVSA | – | – | H460-Lung | –
LKAGLRS | OVCAR-5 Ovarian | – | – | –
LKLLSVP | – | HT-29 Colon | – | –
LKVRGVL | – | HT-29 Colon | – | –
LLGAGTP | IGROV1 Ovarian | – | – | –
LLGIGGS | SK-MEL-28 Melanoma | – | – | –
LLLLSGS | – | – | – | RXF393 Renal
LLLRSGG | – | – | RPMI-8226-Leukemia | –
LLNPARG | – | – | – | SN12C Renal
LLRAGVR | – | – | – | UO31 Renal
LLRGLEL | – | – | HL-60-Leukemia | –
LLRGLRP | – | – | – | TK-10 Renal
LLRLSLA | – | – | H23-Lung | –
LLRPAHG | SK-MEL-2 Melanoma | – | – | –
LLRPGTV | – | HCC-2998-Colon | – | –
LLRRAVF | – | – | Hop-62-Lung | –
LLRRGIG | SK-MEL-5 Melanoma | – | – | –
LLRRLSW | SK-MEL-2 Melanoma | – | – | –

Substance | Cell Line (NCI-60 cell line the peptide and its motif are associated with) | Cell Line (NCI-60 cell line the peptide is associated with) | Cell Line with which the peptide (and its tripeptide motif) is associated | Cell Line the peptide is associated with (peptide recovered from phage library selection on this NCI-60 cell line)
LLRSAAP | – | – | RPMI-8226-Leukemia | –
LLRSHGV | – | SF-295 CNS | – | –
LLRSSLG | – | HCT-116 Colon | – | –
LLRSVGY | DU-145 Prostate | – | – | –
LLSAARF | – | – | – | MDA-MB-231 Breast
LLSASLV | – | – | K-562-Leukemia | –
LLSFLGR | – | – | Molt-4-Leukemia | –
LLSGVIL | – | LOX-IMVI Melanoma | – | –
LLSILKA | IGROV1 Ovarian | – | – | –
LLSLDPG | SK-MEL-2 Melanoma | – | – | –
LLSPRGT | – | SF-295 CNS | – | –
LLSRAQA | – | – | – | BT-549 Breast
LLSRRVG | – | SNB-75 CNS | – | –
LLSSRRC | SK-MEL-2 Melanoma | – | – | –
LLSTSIR | – | – | RPMI-8226-Leukemia | –
LLSTVWV | – | – | – | TK-10 Renal
LLSVTSX | – | – | – | SN12C Renal
LLVSLSS | – | – | – | RXF393 Renal
LMGRASG | – | – | SR Leukemia | –
LMLVSGK | – | – | – | NCI/ADR-RES Breast
LNAGGSG | DU-145 Prostate | – | – | –
LPCGGLA | – | SNB-19 CNS; also recorded: SF-539 CNS | – | –
LPGRLRV | OVCAR-5 Ovarian | – | – | –
LPLGLVS | – | – | – | T-47D Breast

Substance | Cell Line (NCI-60 cell line the peptide and its motif are associated with) | Cell Line (NCI-60 cell line the peptide is associated with) | Cell Line with which the peptide (and its tripeptide motif) is associated | Cell Line the peptide is associated with (peptide recovered from phage library selection on this NCI-60 cell line)
LPLLRGI | – | – | HL-60-Leukemia | –
LPRRAVF | DU-145 Prostate | – | – | –
LQGAGIH | A498 Renal | – | – | –
LQGSGAY | OVCAR-8 Ovarian | – | – | –
LQHLGSG | OVCAR-8 Ovarian | – | – | –
LQRGVAR | OVCAR-5 Ovarian | – | – | –
LRAGGSY | IGROV1 Ovarian | – | – | –
LRARGGH | – | HT-29 Colon | – | –
LRASLLW | – | HCC-2998-Colon | – | –
LRAVEFL | – | MALME-3M Melanoma | – | –
LRFRRGV | PC3 Prostate | – | – | –
LRGGLVS | – | – | EKVX-Lung | –
LRGSHVA | – | – | – | ACHN Renal
LRGSRQF | SK-MEL-28 Melanoma | – | – | –
LRGSVGR | SK-MEL-28 Melanoma | – | – | –
LRGSYVL | – | SW620-Colon | – | –
LRGVYVA | – | – | – | NCI/ADR-RES Breast
LRIARGV | – | COLO-205-Colon | – | –
LRLSGHD | – | – | – | NCI/ADR-RES Breast
LRLSSIP | – | – | CCRF-CEM Leukemia | –
LRPGLRS | – | – | – | CAIK-1 Renal
LRRSSFS | – | – | K-562-Leukemia | –
LRSDPRS | – | HT-29 Colon | – | –
LRSGAGS | – | – | Molt-4-Leukemia | –

Substance | Cell Line (NCI-60 cell line the peptide and its motif are associated with) | Cell Line (NCI-60 cell line the peptide is associated with) | Cell Line with which the peptide (and its tripeptide motif) is associated | Cell Line the peptide is associated with (peptide recovered from phage library selection on this NCI-60 cell line)
LRSGRGS | – | – | RPMI-8226-Leukemia | MDA-MB-435-Breast
LRSGSLG | – | SF-268 CNS | – | –
LRSMAVM | – | – | – | ACHN Renal
LRSRLGF | – | – | SR Leukemia | –
LRSSGAT | – | – | H322-Lung | –
LRSSLVS | – | – | – | RXF393 Renal
LRSSMML | – | MALME-3M Melanoma | – | –
LRSVGSW | – | HCT-15 Colon | – | –
LRSWLLF | – | HT-29 Colon | – | –
LRSYAWS | – | SNB-19 CNS; also recorded: SF-539 CNS | – | –
LRVDQLY | UACC62 Melanoma | – | – | –
LRVGHAG | – | – | – | SN12C Renal
LRVGIGY | – | – | H23-Lung | –
LRVGXPG | – | – | – | NCI/ADR-RES Breast
LRVPGGP | – | KM-12C Colon | – | –
LRVRYAV | – | – | H322-Lung | –
LRVSNPR | UACC62 Melanoma | – | – | –
LRVSRGL | – | – | – | TK-10 Renal
LRVYGEG | – | SNB-75 CNS | – | –
LRYDLRS | – | – | RPMI-8226-Leukemia | –
LRYNLRS | – | – | RPMI-8226-Leukemia | –
LRYWAAV | SK-MEL-2 Melanoma | – | – | –
